pEC50: −log10 of the molar value.
What was measured:
[1] = biological target: T1, human GLP-1R (Homo sapiens, UniProt P43220, L260F); assay: CHO GLP-1R Clone C6 - Assay 2 (HTRF cAMP agonist assay, low receptor density); assay type: cell-based; settings: CHO GLP-1R Clone C6 (low receptor density)
T1 construct: expressed in transfected cells
Experimental: GLP-1R-mediated agonist activity was determined with a cell-based functional assay utilizing an HTRF (Homogeneous Time-Resolved Fluorescence) cAMP detection kit (cAMP HI Range Assay Kit; Cis Bio cat #62AM6PEJ) that measures cAMP levels in the cell. The method is a competitive immunoassay between native cAMP produced by the cells and exogenous cAMP labeled with the dye d2. The tracer binding is visualized by a mAb anti-cAMP labeled with Cryptate. The specific signal (i.e. energy transfer) is inversely proportional to the concentration of cAMP in either a standard or an experimental sample.
The human GLP-1R coding sequence (NCBI Reference Sequence NP_002053.3, including naturally-occurring variant Leu260Phe) was subcloned into pcDNA5-FRT-TO and a clonal CHO cell line stably expressing a low receptor density was isolated using the Flp-In™ T-Rex™ System, as described by the manufacturer (ThermoFisher).
Cells were removed from cryopreservation, re-suspended in 40 mL of Dulbecco's Phosphate Buffered Saline (DPBS—Lonza Cat #17-512Q) and centrifuged at 800×g for 5 minutes at 22° C. The DPBS was aspirated, and the cell pellet was re-suspended in 10 mL of complete growth medium (DMEM:F12 1:1 Mixture with HEPES, L-Gln, 500 mL (DMEM/F12 Lonza Cat #12-719F), 10% heat inactivated fetal bovine serum (Gibco Cat #16140-071), 5 mL of 100× Pen-Strep (Gibco Cat #15140-122), 5 mL of 100× L-Glutamine (Gibco Cat #25030-081), 700 μg/mL Hygromycin (Invitrogen Cat #10687010) and 15 μg/mL Blasticidin (Gibco Cat #R21001). A 1 mL sample of the cell suspension in growth media was counted on a Becton Dickinson ViCell to determine cell viability and cell count per mL. The remaining cell suspension was then adjusted with growth media to deliver 1600 viable cells per well using a Matrix Combi Multidrop reagent dispenser, and the cells were dispensed into a white 384 well tissue culture treated assay plate (Corning 3570). The assay plate was then incubated for 48 hours at 37° C. in a humidified environment (95% O2, 5% CO2)
Varying concentrations of each compound to be tested (in DMSO) were diluted in assay buffer [HBSS with Calcium/Magnesium (Lonza/BioWhittaker cat #10-527F)/0.1% BSA (Sigma Aldrich cat #A7409-1L)/20 mM HEPES (Lonza/BioWhittaker cat #17-737E)] containing 100 μM 3-isobutyl-1-methylxanthin (IBMX; Sigma cat #15879). The final DMSO concentration in the compound/assay buffer mixture is 1%.
After 48 hours, the growth media was removed from the assay plate wells, and the cells were treated with 20 μL of the serially diluted compound in assay buffer for 30 minutes at 37° C. in a humidified environment (95% O2, 5% CO2). Following the 30 minute incubation, 10 μL of labeled d2 cAMP and 10 μL of anti-cAMP antibody (both diluted 1:20 in cell lysis buffer; as described in the manufacturer's assay protocol) were added to each well of the assay plate. The plates were then incubated at room temperature and after 60 minutes, changes in the HTRF signal were read with an Envision 2104 multi-label plate reader using excitation of 330 nm and emissions of 615 and 665 nm. Raw data were converted to nM cAMP by interpolation from a cAMP standard curve (as described in the manufacturer's assay protocol) and the percent effect was determined relative to a saturating concentration of the full agonist GLP-1 (1 μM) included on each plate. EC50 determinations were made from agonist dose response curves analyzed with a curve fitting program using a 4-parameter logistic dose response equation.

[2] = biological target: human GLP-1R (Homo sapiens, UniProt P43220); assay: CHO GLP-1R Clone H6 - Assay 1 (HTRF cAMP agonist assay)
Experimental: (§1) GLP-1R-mediated agonist activity was determined with a cell-based functional assay utilizing an HTRF (Homogeneous Time-Resolved Fluorescence) cAMP detection kit (cAMP HI Range Assay Kit; CisBio cat #62AM6PEJ) that measures cAMP levels in the cell. The method is a competitive immunoassay between native cAMP produced by the cells and exogenous cAMP labeled with the dye d2. The tracer binding is visualized by a mAb anti-cAMP labeled with Cryptate. The specific signal (i.e. energy transfer) is inversely proportional to the concentration of cAMP in either standard or experimental sample.
(§2) The human GLP-1R coding sequence (NCBI Reference Sequence NP_002053.3, including naturally-occurring variant Gly168Ser) was subcloned into pcDNA3 (Invitrogen) and a cell line stably expressing the receptor was isolated (designated Clone H6).
(§3) Cells were removed from cryopreservation, re-suspended in 40 mL of Dulbecco's Phosphate Buffered Saline (DPBS—Lonza Cat #17-512Q) and centrifuged at 800×g for 5 minutes at 22° C. The cell pellet was then re-suspended in 10 mL of growth medium [DMEM/F12 1:1 Mixture with HEPES, L-Gln, 500 mL (DMEM/F12 Lonza Cat #12-719F), 10% heat inactivated fetal bovine serum (Gibco Cat #16140-071), 5 mL of 100× Pen-Strep (Gibco Cat #15140-122), 5 mL of 100× L-Glutamine (Gibco Cat #25030-081) and 500 μg/mL Geneticin (G418) (Invitrogen #10131035)]. A 1 mL sample of the cell suspension in growth media was counted on a Becton Dickinson ViCell to determine cell viability and cell count per mL. The remaining cell suspension was then adjusted with growth media to deliver 2000 viable cells per well using a Matrix Combi Multidrop reagent dispenser, and the cells were dispensed into a white 384 well tissue culture treated assay plate (Corning 3570). The assay plate was then incubated for 48 hours at 37° C. in a humidified environment in 5% carbon dioxide.
(§4) Varying concentrations of each compound to be tested (in DMSO) were diluted in assay buffer (HBSS with Calcium/Magnesium (Lonza/BioWhittaker cat #10-527F)/0.1% BSA (Sigma Aldrich cat #A7409-1L)/20 mM HEPES (Lonza/BioWhittaker cat #17-737E) containing 100 μM 3-isobutyl-1-methylxanthin (IBMX; Sigma cat #15879). The final DMSO concentration is 1%.
(§5) After 48 hours, the growth media was removed from the assay plate wells, and the cells were treated with 20 μL of the serially diluted compound in assay buffer for 30 minutes at 37° C. in a humidified environment in 5% carbon dioxide. Following the 30 minute incubation, 10 μL of labeled d2 cAMP and 10 μL of anti-cAMP antibody (both diluted 1:20 in cell lysis buffer; as described in the manufacturer's assay protocol) were added to each well of the assay plate. The plates were then incubated at room temperature and after 60 minutes, changes in the HTRF signal were read with an Envision 2104 multi-label plate reader using excitation of 330 nm and emissions of 615 and 665 nm. Raw data were converted to nM cAMP by interpolation from a cAMP standard curve (as described in the manufacturer's assay protocol) and the percent effect was determined relative to a saturating concentration of the full agonist GLP-17-36 (1 μM) included on each plate. EC50 determinations were made from agonist dose-response curves analyzed with a curve fitting program using a 4-parameter logistic dose response equation.

[3] = biological target: human GLP-1R (Homo sapiens, UniProt P43220, G168S); assay: as above; settings: read-out: Assay 1 Emax (%)
Experimental: as §1, §2, §3, §4, §5

[4] = Metabolite profiling of pooled human plasma after repeat oral dosing of Compound 1 (HPLC/UV/MS)
Experimental: Plasma samples from nine human subjects following oral administration of 120 mg BID for 28 days in a clinical study were examined for metabolites.
Individual subject's plasma (from nine human subjects with 120 mg BID dose Day 28) were pooled in proportion to the time period represented by each to yield a pool for profiling that was representative of the AUC (0-12 hr) according to the method of Hamilton et al. [Hamilton R A, Garnett W R, Kline B J. Determination of a mean valproic acid serum level by assay of a single pooled sample. […] Pooled plasma time points were first prepared by aliquoting equal amounts (1.0 mL) of plasma from each subject prior to making a single Hamilton pool. Blank plasma pools were made by taking equal aliquots of predose samples. To a 2 mL aliquot of each pooled plasma sample was added 6 mL of acetonitrile and then mixed. Protein precipitated samples were centrifuged for 5 minutes at 2000×g and the supernatants were transferred to other clean 15 mL centrifuge tubes. Samples were dried using an evaporative centrifuge set to 37° C. Samples were reconstituted using 0.2 mL of 5:95 acetonitrile:water and analyzed by HPLC/UV/MS.
Reconstituted samples were analyzed by positive ion HPLC/UV/MS using a Thermo Orbitrap Elite mass spectrometer operating in positive ion electrospray mode. Xcalibur software version 3.0.63 was used to control the HPLC/UV/MS system. Full scan data were collected at 15,000 resolution. Data dependent product ion scans of the two most intense ions found in the full scan were obtained at 15,000 resolution. The dynamic exclusion function was used with a 10 second exclusion duration after 3 successive product ion scans with an early exclusion if the precursor ion fell below a signal to noise ratio of 20. The HPLC system consisted of an Accela quaternary solvent delivery pump, an Accela autoinjector, an Accela PDA Plus photodiode array detector (Thermo Electron Corporation). Chromatography was performed on a Phenomenex Kinetex column (2.1 mm×100 mm, 2.6 μm) at 45° C. using a HotSleeve column heater (Analytical Sales and Services). The mobile phase was composed of 0.1% formic acid in water (solvent A) and acetonitrile (solvent B). The solvent delivery gradient program was as follows:

T1 sequence (P43220 24-463 L260F): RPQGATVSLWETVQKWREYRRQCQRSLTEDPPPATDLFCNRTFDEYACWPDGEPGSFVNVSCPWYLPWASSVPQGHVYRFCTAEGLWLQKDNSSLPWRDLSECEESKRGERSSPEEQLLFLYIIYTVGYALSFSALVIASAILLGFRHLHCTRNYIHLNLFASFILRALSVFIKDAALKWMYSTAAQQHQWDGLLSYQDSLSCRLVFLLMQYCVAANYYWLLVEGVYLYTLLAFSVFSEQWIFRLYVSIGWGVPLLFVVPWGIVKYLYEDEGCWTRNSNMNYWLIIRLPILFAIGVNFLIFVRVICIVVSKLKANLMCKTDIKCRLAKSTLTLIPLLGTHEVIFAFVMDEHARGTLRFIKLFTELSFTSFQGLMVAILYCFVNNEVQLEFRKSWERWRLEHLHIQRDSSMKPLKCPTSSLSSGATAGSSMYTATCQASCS
Chain of human GLP-1R (Homo sapiens, UniProt P43220, G168S) (P43220 24-463 G168S): as the sequence (P43220 24-463 L260F) above, with G145S, F237L counted along it
Chain of human GLP-1R (Homo sapiens, UniProt P43220) (P43220 24-463 G168S): as the sequence (P43220 24-463 L260F) above, with G145S, F237L counted along it

- Emax ([1]; arithmetic mean, relative to 1 μM GLP-1): 0%
- pEC50 ([1]; geometric mean): < 4.70
- pEC50 [2]: < 4.70
- Emax [3]: 2%
- observed as major or minor metabolite in human plasma ([4]; Compound 1 120 mg BID, Day 28): major circulating metabolite
- Plasma Extracts ([4]; Compound 1 120 mg oral BID, Day 28, HPLC/UV/MS): +++
Structure (SMILES): O=C(O)c1ccc2nc(CN3CCC(c4cccc(=O)[nH]4)CC3)n(C[C@@H]3CCO3)c2c1 [Compound M2, (S)-2-((4-(6-hydroxypyridin-2-yl)piperidin-1-yl)methyl)-1-(oxetan-2-ylmethyl)-1H-benzo[d]imidazole-6-carboxylic acid]
